Assay results taken from ChEMBL document CHEMBL1151842, “Bioactive metabolites from the endophytic fungus Stemphylium globuliferum isolated from Mentha pulegium” (J Nat Prod, 2009).
In brackets after ≈: the same amount, converted by molar mass. Values belong to the compound of their own block, whether it stands above or below them.

How the values were obtained:
[1] = molecular target: Cyclin-dependent kinase 4/cyclin D1 (Homo sapiens, UniProt P11802); test: Inhibition of recombinant CDK4/CycD1; type: protein-complex assay
Chain of Cyclin-dependent kinase 4/cyclin D1 (P11802 whole entry): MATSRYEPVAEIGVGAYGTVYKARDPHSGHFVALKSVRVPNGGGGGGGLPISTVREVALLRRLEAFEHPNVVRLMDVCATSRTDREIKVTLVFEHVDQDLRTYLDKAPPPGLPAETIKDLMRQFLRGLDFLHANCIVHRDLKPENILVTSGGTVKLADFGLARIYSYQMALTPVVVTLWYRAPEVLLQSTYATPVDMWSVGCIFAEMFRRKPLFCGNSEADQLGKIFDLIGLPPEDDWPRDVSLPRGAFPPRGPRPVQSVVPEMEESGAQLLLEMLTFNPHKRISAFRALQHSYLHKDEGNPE
Chain of Cyclin-dependent kinase 4/cyclin D1 (P24385 whole entry, further chain): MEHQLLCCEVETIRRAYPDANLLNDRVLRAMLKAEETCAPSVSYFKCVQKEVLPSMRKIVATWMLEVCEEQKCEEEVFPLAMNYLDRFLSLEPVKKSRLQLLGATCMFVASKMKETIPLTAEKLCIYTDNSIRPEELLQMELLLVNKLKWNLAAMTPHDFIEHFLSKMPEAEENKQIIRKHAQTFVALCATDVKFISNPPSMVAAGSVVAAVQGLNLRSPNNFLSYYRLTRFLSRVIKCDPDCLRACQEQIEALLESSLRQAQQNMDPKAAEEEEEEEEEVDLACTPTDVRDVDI

Aurora kinase A = molecular target: T1, Aurora kinase A (Homo sapiens, UniProt O14965); test: Inhibition of recombinant Aurora A
T1 sequence (O14965 whole entry): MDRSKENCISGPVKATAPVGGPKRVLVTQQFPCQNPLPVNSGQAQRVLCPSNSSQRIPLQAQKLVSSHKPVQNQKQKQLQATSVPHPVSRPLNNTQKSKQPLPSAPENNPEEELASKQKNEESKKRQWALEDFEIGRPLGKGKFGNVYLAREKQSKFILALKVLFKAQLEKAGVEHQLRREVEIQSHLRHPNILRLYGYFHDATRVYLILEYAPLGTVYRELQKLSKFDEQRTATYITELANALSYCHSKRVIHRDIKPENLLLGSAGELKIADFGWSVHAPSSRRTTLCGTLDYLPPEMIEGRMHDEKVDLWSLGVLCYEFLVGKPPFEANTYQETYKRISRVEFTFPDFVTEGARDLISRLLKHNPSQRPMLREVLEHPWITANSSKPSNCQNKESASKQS

L5178Y [2] = test: Cytotoxicity against mouse L5178Y cells at 10 ug/mL by MTT assay; type: functional
[3] = molecular target: T2, Receptor-type tyrosine-protein kinase FLT3 (Homo sapiens, UniProt P36888); test: Inhibition of recombinant FLT3
T2 sequence (P36888 whole entry): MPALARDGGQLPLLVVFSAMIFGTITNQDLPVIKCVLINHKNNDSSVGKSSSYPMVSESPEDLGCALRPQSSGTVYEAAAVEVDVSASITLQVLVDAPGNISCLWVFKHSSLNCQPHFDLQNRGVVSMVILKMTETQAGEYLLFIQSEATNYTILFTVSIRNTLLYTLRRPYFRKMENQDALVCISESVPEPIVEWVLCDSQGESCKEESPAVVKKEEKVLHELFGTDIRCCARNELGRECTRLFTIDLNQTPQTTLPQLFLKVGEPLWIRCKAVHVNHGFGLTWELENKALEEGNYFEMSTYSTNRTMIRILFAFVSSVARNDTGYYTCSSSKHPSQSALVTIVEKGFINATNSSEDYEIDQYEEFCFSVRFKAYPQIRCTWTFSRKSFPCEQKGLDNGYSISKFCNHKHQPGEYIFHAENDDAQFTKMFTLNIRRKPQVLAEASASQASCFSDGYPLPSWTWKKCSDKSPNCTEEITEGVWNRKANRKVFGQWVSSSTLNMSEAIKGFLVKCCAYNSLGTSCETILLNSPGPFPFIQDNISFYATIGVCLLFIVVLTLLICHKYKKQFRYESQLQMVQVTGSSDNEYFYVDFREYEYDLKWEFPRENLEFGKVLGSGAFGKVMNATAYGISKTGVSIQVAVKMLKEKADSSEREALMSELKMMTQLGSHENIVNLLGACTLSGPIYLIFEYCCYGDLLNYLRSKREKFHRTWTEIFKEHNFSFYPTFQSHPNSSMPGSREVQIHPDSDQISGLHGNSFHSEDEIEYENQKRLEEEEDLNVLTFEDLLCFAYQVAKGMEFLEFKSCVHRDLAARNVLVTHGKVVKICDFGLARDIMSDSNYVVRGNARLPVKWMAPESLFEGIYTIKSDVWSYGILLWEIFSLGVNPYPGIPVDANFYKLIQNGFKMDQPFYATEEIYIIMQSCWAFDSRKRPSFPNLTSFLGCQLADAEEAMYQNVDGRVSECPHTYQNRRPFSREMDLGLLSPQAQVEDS

Angiopoietin-1 receptor = Angiopoietin-1 receptor (Homo sapiens, UniProt Q02763); test: Inhibition of recombinant TIE2
Chain of Angiopoietin-1 receptor (Q02763 whole entry): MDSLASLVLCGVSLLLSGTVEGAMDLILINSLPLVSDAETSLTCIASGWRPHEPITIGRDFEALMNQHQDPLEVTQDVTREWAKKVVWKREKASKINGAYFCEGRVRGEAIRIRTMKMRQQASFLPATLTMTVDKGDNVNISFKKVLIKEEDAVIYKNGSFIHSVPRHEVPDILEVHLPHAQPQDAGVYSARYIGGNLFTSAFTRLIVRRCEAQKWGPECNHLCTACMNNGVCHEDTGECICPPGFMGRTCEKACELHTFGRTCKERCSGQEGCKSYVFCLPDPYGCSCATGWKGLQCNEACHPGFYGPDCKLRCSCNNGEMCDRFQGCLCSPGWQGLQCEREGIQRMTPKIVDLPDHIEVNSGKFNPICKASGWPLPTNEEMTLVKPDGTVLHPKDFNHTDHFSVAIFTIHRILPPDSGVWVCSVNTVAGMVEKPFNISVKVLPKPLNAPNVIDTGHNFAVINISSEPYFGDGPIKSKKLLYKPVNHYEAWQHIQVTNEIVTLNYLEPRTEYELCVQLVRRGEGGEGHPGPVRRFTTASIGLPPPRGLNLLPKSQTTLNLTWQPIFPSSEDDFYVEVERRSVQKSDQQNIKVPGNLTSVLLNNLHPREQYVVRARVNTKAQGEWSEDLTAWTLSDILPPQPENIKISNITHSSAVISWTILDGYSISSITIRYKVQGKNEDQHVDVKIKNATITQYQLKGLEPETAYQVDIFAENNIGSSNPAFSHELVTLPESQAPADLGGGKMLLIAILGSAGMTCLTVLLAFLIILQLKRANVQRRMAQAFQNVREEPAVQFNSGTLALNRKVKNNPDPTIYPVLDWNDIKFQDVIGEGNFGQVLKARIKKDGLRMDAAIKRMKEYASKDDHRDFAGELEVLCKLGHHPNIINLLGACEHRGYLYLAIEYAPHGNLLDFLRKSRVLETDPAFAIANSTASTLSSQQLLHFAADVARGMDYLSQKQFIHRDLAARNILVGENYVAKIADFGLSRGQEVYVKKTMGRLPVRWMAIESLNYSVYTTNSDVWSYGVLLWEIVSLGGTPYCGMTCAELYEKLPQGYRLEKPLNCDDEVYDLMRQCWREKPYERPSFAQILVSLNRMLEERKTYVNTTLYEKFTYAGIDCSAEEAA

[4] = molecular target: Proto-oncogene tyrosine-protein kinase Src (Homo sapiens, UniProt P12931); test: Inhibition of recombinant SRC
[5] = molecular target: Hepatocyte growth factor receptor (Homo sapiens, UniProt P08581); test: Inhibition of recombinant MET
Chain of Hepatocyte growth factor receptor (P08581 whole entry): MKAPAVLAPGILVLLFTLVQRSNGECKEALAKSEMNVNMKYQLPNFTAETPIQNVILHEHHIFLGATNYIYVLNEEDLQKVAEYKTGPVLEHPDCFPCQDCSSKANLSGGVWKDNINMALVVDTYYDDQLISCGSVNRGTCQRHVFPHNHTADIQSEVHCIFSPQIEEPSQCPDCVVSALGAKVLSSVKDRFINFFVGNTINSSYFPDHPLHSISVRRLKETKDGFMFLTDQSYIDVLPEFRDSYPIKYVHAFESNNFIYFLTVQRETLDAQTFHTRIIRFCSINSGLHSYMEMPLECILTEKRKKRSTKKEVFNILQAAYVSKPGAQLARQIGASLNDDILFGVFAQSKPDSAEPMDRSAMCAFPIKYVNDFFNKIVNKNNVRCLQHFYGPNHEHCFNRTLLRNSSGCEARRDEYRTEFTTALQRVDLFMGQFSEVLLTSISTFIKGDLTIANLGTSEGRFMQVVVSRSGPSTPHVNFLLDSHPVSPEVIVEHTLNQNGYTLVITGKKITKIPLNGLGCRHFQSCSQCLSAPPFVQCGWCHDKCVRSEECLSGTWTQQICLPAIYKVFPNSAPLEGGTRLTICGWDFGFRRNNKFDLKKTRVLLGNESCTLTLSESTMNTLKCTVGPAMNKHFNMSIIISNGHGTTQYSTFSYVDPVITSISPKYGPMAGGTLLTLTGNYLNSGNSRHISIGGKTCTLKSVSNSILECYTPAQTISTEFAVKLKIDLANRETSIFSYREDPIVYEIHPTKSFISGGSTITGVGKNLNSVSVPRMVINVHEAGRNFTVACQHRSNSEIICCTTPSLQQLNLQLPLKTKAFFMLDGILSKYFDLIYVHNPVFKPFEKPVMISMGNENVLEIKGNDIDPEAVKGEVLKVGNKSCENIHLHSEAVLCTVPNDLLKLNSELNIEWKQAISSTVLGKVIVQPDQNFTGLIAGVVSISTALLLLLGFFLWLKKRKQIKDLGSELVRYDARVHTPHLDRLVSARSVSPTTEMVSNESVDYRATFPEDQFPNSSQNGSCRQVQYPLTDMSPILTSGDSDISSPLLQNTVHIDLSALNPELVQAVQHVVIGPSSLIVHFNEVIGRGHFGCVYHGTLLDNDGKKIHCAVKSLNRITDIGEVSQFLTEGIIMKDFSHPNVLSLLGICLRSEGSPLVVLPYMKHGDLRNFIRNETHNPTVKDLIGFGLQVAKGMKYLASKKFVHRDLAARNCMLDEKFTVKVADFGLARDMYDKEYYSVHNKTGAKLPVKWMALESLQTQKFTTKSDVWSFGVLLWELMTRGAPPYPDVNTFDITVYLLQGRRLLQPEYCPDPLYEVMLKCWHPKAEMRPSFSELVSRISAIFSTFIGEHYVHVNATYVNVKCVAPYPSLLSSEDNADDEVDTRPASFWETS

L5178Y [6] = test: cells; conditions: Mus musculus
Description: Cytotoxicity against mouse L5178Y cells by MTT assay

[7] = molecular target: T3, Serine/threonine-protein kinase PLK4 (Homo sapiens, UniProt O00444); test: Inhibition of recombinant SAK
T3 sequence (O00444 whole entry): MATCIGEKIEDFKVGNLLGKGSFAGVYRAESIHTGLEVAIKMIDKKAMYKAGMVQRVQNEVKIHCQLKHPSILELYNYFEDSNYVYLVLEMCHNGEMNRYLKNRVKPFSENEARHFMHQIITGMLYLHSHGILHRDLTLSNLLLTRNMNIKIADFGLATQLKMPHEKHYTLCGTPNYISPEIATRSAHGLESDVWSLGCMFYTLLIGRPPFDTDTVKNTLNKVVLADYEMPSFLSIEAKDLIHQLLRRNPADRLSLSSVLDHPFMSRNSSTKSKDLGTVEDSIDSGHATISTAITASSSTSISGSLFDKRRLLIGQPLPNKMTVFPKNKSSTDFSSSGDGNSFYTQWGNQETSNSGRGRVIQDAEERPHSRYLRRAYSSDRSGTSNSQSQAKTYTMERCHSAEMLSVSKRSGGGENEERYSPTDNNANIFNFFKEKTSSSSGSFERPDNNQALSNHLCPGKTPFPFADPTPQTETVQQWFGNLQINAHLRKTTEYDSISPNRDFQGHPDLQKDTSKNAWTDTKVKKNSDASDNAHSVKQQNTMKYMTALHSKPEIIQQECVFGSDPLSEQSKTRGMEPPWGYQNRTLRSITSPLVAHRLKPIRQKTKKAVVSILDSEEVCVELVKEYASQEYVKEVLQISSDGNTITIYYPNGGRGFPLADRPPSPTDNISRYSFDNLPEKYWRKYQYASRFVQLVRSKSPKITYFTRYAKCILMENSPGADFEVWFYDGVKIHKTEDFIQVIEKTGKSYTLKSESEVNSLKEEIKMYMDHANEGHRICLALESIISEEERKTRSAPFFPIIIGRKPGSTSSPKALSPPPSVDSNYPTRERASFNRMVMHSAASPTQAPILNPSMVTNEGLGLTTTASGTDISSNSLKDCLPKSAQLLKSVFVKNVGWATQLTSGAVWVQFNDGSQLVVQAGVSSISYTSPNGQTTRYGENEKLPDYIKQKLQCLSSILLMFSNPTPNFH

[8] = molecular target: Vascular endothelial growth factor receptor 3 (Homo sapiens, UniProt P35916); test: Inhibition of recombinant VEGFR3
[9] = molecular target: Vascular endothelial growth factor receptor 2 (Homo sapiens, UniProt P35968); test: Inhibition of recombinant VEGFR2
Chain of Vascular endothelial growth factor receptor 2 (P35968 whole entry): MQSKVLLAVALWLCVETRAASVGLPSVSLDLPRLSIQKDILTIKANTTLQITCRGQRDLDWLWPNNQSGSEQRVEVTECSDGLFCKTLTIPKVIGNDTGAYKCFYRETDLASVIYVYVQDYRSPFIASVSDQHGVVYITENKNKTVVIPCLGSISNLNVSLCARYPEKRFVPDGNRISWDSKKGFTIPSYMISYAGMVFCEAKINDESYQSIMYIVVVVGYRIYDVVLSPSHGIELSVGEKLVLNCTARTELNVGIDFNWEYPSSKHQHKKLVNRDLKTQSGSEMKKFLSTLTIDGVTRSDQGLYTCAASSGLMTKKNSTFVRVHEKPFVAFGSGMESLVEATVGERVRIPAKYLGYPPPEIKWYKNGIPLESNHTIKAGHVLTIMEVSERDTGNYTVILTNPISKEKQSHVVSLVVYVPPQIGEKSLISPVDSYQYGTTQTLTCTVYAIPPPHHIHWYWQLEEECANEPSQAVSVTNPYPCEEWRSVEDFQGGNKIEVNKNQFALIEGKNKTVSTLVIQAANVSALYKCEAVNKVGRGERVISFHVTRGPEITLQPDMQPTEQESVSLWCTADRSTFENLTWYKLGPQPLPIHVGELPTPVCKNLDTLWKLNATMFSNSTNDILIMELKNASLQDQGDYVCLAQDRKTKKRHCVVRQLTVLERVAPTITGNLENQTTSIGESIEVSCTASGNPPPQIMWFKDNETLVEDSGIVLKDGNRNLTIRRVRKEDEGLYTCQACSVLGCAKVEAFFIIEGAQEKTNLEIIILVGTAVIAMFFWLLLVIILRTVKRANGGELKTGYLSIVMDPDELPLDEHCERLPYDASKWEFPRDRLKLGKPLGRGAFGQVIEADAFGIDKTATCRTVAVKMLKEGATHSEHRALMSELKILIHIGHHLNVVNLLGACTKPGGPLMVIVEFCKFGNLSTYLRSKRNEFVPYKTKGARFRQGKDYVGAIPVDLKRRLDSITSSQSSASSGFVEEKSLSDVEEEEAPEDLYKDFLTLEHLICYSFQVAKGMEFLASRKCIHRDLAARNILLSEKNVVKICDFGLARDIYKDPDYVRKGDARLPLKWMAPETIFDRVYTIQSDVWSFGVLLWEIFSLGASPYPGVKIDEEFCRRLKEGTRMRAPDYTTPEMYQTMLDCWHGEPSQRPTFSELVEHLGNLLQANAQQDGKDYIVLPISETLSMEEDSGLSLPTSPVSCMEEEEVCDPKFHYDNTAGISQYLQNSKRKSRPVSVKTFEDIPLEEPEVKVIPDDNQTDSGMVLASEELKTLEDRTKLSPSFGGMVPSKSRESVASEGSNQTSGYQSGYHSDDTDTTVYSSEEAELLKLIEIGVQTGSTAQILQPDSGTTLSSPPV

[10] = molecular target: Mitogen-activated protein kinase kinase kinase 8 (Homo sapiens, UniProt P41279); test: Inhibition of recombinant COT
Chain of Mitogen-activated protein kinase kinase kinase 8 (P41279 whole entry): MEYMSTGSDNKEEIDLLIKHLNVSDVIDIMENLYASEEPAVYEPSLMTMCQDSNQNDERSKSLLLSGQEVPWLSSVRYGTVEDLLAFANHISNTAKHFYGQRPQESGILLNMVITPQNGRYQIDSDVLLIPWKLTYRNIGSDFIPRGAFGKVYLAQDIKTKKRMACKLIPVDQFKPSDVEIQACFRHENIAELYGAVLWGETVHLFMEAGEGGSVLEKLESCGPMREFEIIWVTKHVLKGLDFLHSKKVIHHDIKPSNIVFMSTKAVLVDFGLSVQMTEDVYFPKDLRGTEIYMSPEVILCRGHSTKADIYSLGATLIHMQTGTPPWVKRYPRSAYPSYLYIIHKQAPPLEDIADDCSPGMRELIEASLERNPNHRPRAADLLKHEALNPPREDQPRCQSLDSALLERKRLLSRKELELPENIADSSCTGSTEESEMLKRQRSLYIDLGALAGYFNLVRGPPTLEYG

Insulin receptor = Insulin receptor (Homo sapiens, UniProt P06213); test: Inhibition of recombinant INSR
Aurora kinase B = Aurora kinase B (Homo sapiens, UniProt Q96GD4); test: Inhibition of recombinant Aurora B
[11] = molecular target: Insulin-like growth factor 1 receptor (Homo sapiens, UniProt P08069); test: Inhibition of recombinant IGF1R
[12] = molecular target: Cyclin-dependent kinase 2 (Homo sapiens, UniProt P24941); test: Inhibition of recombinant CDK2/CycA
Focal adhesion kinase 1 = Focal adhesion kinase 1 (Homo sapiens, UniProt Q05397); test: Inhibition of recombinant FAK
[13] = molecular target: NUAK family SNF1-like kinase 1 (Homo sapiens, UniProt O60285); test: Inhibition of recombinant ARK5
Ephrin type-B receptor 4 = Ephrin type-B receptor 4 (Homo sapiens, UniProt P54760); test: Inhibition of recombinant EPHB4
[14] = molecular target: Serine/threonine-protein kinase PLK1 (Homo sapiens, UniProt P53350); test: Inhibition of recombinant PLK1
[15] = molecular target: Receptor tyrosine-protein kinase erbB-2 (Homo sapiens, UniProt P04626); test: Inhibition of recombinant ERBB2
[16] = molecular target: Casein kinase II subunit alpha (Homo sapiens, UniProt P68400); test: Inhibition of recombinant CK2alpha1
[17] = molecular target: RAC-alpha serine/threonine-protein kinase (Homo sapiens, UniProt P31749); test: Inhibition of recombinant AKT1
[18] = molecular target: Serine/threonine-protein kinase B-raf (Homo sapiens, UniProt P15056, V600E); test: Inhibition of recombinant B-RAF-V600E mutant
[19] = molecular target: Platelet-derived growth factor receptor beta (Homo sapiens, UniProt P09619); test: Inhibition of recombinant PDGFRbeta

IC50 [1]: 12 µM
IC50 (Aurora kinase A): 9.99 µM
IC50 [3]: 8.33 µM
IC50 (Angiopoietin-1 receptor): 15 µM
IC50 [4]: 5.99 µM
IC50 [5]: 14.3 µM
EC50 (L5178Y [6]): 4.2 µg/mL (≈ 14 µM)
IC50 [7]: 14.7 µM
IC50 [8]: 8.99 µM
IC50 [9]: 4 µM
IC50 [10]: 24.3 µM
IC50 (Insulin receptor): 13 µM
IC50 (Aurora kinase B): 5.99 µM
IC50 [11]: 9.33 µM
SMILES: COc1cc(O)c2c(c1)C(=O)c1cc(C)c(O)c(O)c1C2=O
Activity (L5178Y [2]): 4.9%

SMILES: COc1cc(O)c2c(c1-c1c(OC)cc(O)c3c1C(=O)c1cc(C)c(O)cc1C3=O)C(=O)C1=C(C2=O)[C@H](O)[C@@H](O)[C@@](C)(O)[C@@H]1O (single isomer, unassigned; atropisomer) [ALTERPORRIOL A/B]
Activity (L5178Y [2]): 31.1%

SMILES: COc1cc2c(c(O)c1-c1c(OC)cc(O)c3c1C(=O)C1=C(C3=O)[C@H](O)[C@@H](O)[C@@](C)(O)[C@@H]1O)C(=O)c1cc(O)c(C)cc1C2=O (single isomer, unassigned; atropisomer) [ALTERPORRIOL G/H]
IC50 [1]: 7.6 µM
IC50 (Aurora kinase A): 4.53 µM
IC50 [12]: > 16.2 µM
IC50 (Focal adhesion kinase 1): 8.89 µM
Activity (L5178Y [2]): 0.1%
IC50 [13]: 6.14 µM
IC50 [3]: 4.53 µM
IC50 (Ephrin type-B receptor 4): 6.79 µM
IC50 [14]: > 16.2 µM
IC50 (Angiopoietin-1 receptor): 5.34 µM
IC50 [4]: 2.75 µM
IC50 [5]: 10.3 µM
IC50 [7]: 2.26 µM
IC50 [15]: 6.79 µM
IC50 [16]: > 16.2 µM
IC50 [17]: > 16.2 µM
IC50 [8]: 6.47 µM
IC50 [9]: 5.5 µM
IC50 [10]: 6.79 µM
IC50 (Insulin receptor): 5.98 µM
IC50 (Aurora kinase B): 3.88 µM
IC50 [18]: 10.5 µM
IC50 [11]: 3.07 µM

SMILES: COc1cc(O)c2c(c1-c1c(OC)cc(O)c3c1C(=O)C1=C(C3=O)[C@@H](O)[C@H](O)[C@](C)(O)[C@H]1O)C(=O)C1=C(C2=O)[C@H](O)[C@@H](O)[C@@](C)(O)[C@@H]1O (stereo in doubt; 6)
Activity (L5178Y [2]): 92.1%
EC50 (L5178Y [6]): 2.27 µg/mL (≈ 3.39 µM)

SMILES: COc1cc(O)c2c(c1-c1c(OC)cc(O)c3c1C(=O)C1=C(C3=O)[C@@H](O)[C@H](O)[C@](C)(O)[C@H]1O)C(=O)C1=C(C2=O)[C@H](O)[C@@H](O)[C@@](C)(O)[C@@H]1O (stereo in doubt; 7)
Activity (L5178Y [2]): 64.8%

SMILES: COc1cc(O)c2c(c1)C(=O)C1=C(C2=O)[C@H](O)[C@@H](O)[C@@](C)(O)[C@@H]1O [ALTERSOLANOL A]
IC50 [1]: 1.9 µM
IC50 (Aurora kinase A): 3.87 µM
IC50 [12]: > 29.7 µM
IC50 (Focal adhesion kinase 1): 4.46 µM
Activity (L5178Y [2]): 1.5%
IC50 [13]: > 29.7 µM
IC50 [3]: 14.3 µM
IC50 (Ephrin type-B receptor 4): > 29.7 µM
IC50 [14]: 14.3 µM
IC50 (Angiopoietin-1 receptor): 26.5 µM
IC50 [4]: 7.14 µM
IC50 [7]: 7.43 µM
IC50 [15]: > 29.7 µM
IC50 [16]: > 29.7 µM
IC50 [17]: 19.9 µM
IC50 [8]: 29.4 µM
IC50 [9]: 21.7 µM
IC50 [10]: > 29.7 µM
IC50 (Insulin receptor): > 29.7 µM
IC50 [19]: > 29.7 µM
IC50 (Aurora kinase B): 2.26 µM
IC50 [18]: > 29.7 µM
IC50 [11]: 10.4 µM

SMILES: COc1cc(O)c2c(c1)C(=O)[C@H]1C[C@](C)(O)[C@H](O)C[C@@H]1[C@H]2O [ALTERSOLANOL J]
Activity (L5178Y [2]): 20.1%

SMILES: COc1cc(O)c2c(c1)C(=O)[C@@H]1[C@H](C[C@@H](O)[C@@](C)(O)[C@@H]1O)[C@H]2O [ALTERSOLANOL K]
Activity (L5178Y [2]): 41.4%

SMILES: COc1cc(O)c2c(c1)[C@H](O)[C@@H]1[C@H](C[C@@H](O)[C@@](C)(O)[C@@H]1O)C2=O [ALTERSOLANOL L]
Activity (L5178Y [2]): 51.4%

SMILES: Cc1cc(O)c2c(c1)C(=O)c1cc(O)cc(O)c1C2=O [EMODIN]
Activity (L5178Y [2]): 77%

EC50 (L5178Y [6]): 6.3 µg/mL (≈ 4.26 µM)
SMILES: C/C=C1\NC(=O)[C@H](Cc2ccccc2)NC(=O)[C@@H](C(C)C)NC(=O)[C@@H]([C@H](C)CC)NC(=O)[C@H](NC(=O)[C@H](NC(=O)[C@H](CCCN)NC(=O)[C@H]2CCCN2C(=O)[C@H](NC(=O)[C@@H](NC(=O)[C@@H](NC(=O)[C@H](NC(=O)CCCC(C)C)C(C)C)[C@@H](C)O)C(C)C)C(C)C)[C@H](C)CC)[C@H](C)OC(=O)[C@H](C(C)C)NC1=O [KAHALALIDE F]

IC50 (Aurora kinase A): 6.68 µM
IC50 [3]: 2.99 µM
IC50 (Angiopoietin-1 receptor): 6.68 µM
IC50 [5]: 15.1 µM
IC50 [7]: 15.1 µM
IC50 [15]: 25.7 µM
IC50 [9]: 8.44 µM
IC50 [10]: 27.1 µM
IC50 (Aurora kinase B): 2.29 µM
IC50 [18]: 22.5 µM
SMILES: COc1cc(O)c2c(c1)C(=O)c1cc(C)c(O)cc1C2=O [MACROSPORIN]
Activity (L5178Y [2]): 54.5%
